Laboratory results published in patent US11072632B2, “Inhibitors of 17β-HSD1, 17β-HSD3 and 17β-HSD10” (UNIVERSITÉ LAVAL, priority 2011, dated 2021).
Read-outs that look alike come from different tables or passages of the source.

Columns and labels:
[1] = target: T1, 17β-HSD3 (Homo sapiens, UniProt P37058); assay: Inhibition of 17β-HSD3 in homogenated HEK-293 cells; type: biochemical
T1 construct: expressed in transfected cells; host or cells: HEK-293 (homogenate)
T1 sequence (P37058 1-310): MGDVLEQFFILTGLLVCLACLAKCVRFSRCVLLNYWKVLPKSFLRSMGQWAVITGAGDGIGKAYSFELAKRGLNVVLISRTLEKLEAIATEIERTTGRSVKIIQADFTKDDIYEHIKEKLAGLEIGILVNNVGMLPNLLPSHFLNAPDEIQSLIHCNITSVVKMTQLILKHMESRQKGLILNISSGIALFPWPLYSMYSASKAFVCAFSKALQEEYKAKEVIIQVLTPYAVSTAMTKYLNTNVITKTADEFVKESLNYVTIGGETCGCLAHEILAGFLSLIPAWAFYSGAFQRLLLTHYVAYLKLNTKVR

[2] = target: T1, 17β-HSD3; assay: Inhibition of 17β-HSD3 in intact HEK-293 cells; type: cell-based; settings: for Intact cells (%), tested at 1 μM: Table 3, footnote b
[3] = target: T2, 17β-HSD10 (Homo sapiens, UniProt Q99714); assay: Inhibition of 17β-HSD10 in stably transfected HEK-293 whole cells (E2 into E1); type: cell-based
T2 construct: expressed in transfected cells
T2 sequence (Q99714 1-261): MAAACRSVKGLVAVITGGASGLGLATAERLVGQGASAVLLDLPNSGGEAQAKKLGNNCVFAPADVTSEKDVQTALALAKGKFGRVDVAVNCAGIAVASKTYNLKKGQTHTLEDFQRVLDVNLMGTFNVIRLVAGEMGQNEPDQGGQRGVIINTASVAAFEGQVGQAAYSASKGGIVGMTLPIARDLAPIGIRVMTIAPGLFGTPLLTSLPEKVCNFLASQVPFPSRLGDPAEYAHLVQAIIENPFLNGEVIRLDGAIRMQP

[4] = target: T3, 17β-HSD1 (Homo sapiens, UniProt P14061); assay: Inhibition of 17β-HSD1 in T-47D intact cells (E1 into E2); type: cell-based; settings: T47D; for inhibition at 1 µM: read-out: Inhibition (1 μM)
T3 construct: endogenous in cells; host or cells: T-47D
T3 sequence (P14061 1-328): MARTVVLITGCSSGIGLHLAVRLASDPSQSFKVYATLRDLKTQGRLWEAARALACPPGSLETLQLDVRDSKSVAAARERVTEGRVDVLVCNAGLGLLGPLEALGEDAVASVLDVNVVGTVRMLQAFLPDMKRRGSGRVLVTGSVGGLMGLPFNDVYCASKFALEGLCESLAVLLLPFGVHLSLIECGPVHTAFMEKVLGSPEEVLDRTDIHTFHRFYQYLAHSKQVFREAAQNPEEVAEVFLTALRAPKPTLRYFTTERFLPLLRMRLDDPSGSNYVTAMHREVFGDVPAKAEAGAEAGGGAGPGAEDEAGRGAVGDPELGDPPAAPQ
Method: T-47D cells were seeded in a 24-well plate (3000 cells/well) in medium supplemented with insulin (50 ng/mL) and 5% dextran-coated charcoal treated FBS rather than 10% FBS to remove remaining hormones. […] Each inhibitor was assessed in triplicate. After incubation, the culture medium was removed and labelled steroids (E1 and E2) extracted with 1 mL of diethyl ether. The organic phases were separated and evaporated to dryness using nitrogen. Residues were dissolved in dichloromethane and dropped on silica gel thin layer chromatography plates (EMD Chemicals Inc., Gibbstown, N.J., USA) and eluted with a toluene/acetone (4:1) solvent system. Substrate [^14C]-E1 and metabolite [^14C]-E2 were identified by comparison with reference steroids and quantified using a Storm 860 system (Molecular Dynamics, Sunnyvale, Calif., USA).
T-47D cells were seeded in a 24-well plate (3000 cells/well) in 990 μL of medium supplemented with insulin (50 ng/mL) and 5% dextran-coated charcoal-treated FBS, which was used rather than untreated 10% FBS, to remove the remaining steroid hormones. […] The final concentration of ethanol in the well was adjusted to 0.1%. Additionally, 5 μL of a solution of [^14C]-estrone (American Radiolabeled Chemicals, Inc., St. Louis, Mo., USA) was added to obtain a final concentration of 60 nM. […] After incubation, the culture medium was removed and labeled steroids (E1 and E2) were extracted with 1 mL of diethyl ether. The organic phases were evaporated to dryness with nitrogen. Residues were dissolved in dichloromethane and dropped on silica gel thin layer chromatography plates (EMD Chemicals Inc., Gibbstown, N.J., USA) and eluted with toluene/acetone (4:1) as solvent system. Substrate [^14C]-E1 and metabolite [^14C]-E2 were identified by comparison with reference steroids (E1 and E2) and quantified using the Storm 860 system (Molecular Dynamics, Sunnyvale, Calif., USA).

[5] = Table 3, 0.01 μM, read-out: Homo (%) (0.01 μM)
[6] = Table 3, 0.1 μM, read-out: Homo (%) (0.1 μM)
[7] = HEK293, 1 h, Table 3, read-out: Intact cells (%) (0.1 μM)
[8] = HEK293, [14C]-E2 (1 μM) into [14C]-E1, intact HEK-293 cells, 1 μM, read-out: Inhibition (%) at 1 μM
[9] = Table 2 (17β-HSD1), [14C]-E1 60 nM, T-47D intact cells, 0.1 μM, read-out: Inhibition (0.1 μM)
[10] = Table 2 (17β-HSD1), [14C]-E1 60 nM, T-47D intact cells, 1 μM

For `C[C@]12CC[C@](O)(CN3CCN(Cc4ccccc4)CC3)C[C@@H]1CC[C@@H]1[C@@H]2CC[C@]2(C)C(=O)CC[C@@H]12` [Compound 7j, (3α,5α)-3-[(4-benzylpiperazin-1-yl)methyl]-3-hydroxyandrostan-17-one], the inhibition at 0.01 µM ([1]; Table 2 (17β-HSD3), [14C]-Δ4-dione 50 nM into [14C]-T, 0.01 μM, read-out: Homo (%) (0.01 μM)) was 35%, the inhibition at 0.01 µM ([1]; read-out: Homo (%) (0.01 μM), Table 3, 0.01 μM) was 36% and the inhibition at 0.1 µM ([1]; read-out: Homo (%) (0.1 μM), Table 2 (17β-HSD3), 0.1 μM) was 72%. It also gave an inhibition at 0.1 µM ([1]; read-out: Homo (%) (0.1 μM), Table 3, 0.1 μM) of 74%, an inhibition at 1 µM ([1]; read-out: Homo (%) (1 μM), Table 2 (17β-HSD3), 1 μM) of 90% and an inhibition at 0.1 µM ([2]; HEK293, 1 h, read-out: Intact cells (%) (0.1 μM), Table 2 (17β-HSD3)) of 37%. For the same molecule, the inhibition at 0.1 µM ([2]; HEK293, 1 h, read-out: Intact cells (%) (0.1 μM), Table 3) was 38%, the inhibition at 1 µM ([2]; HEK293, 1 h, read-out: Intact cells (%) (1 μM), Table 2 (17β-HSD3), 1 μM) was 80% and the inhibition at 1 µM ([3]; HEK293, read-out: Inhibition (%) at 1 μM) was 57%.

With `C[C@]12CC[C@@H]3c4ccc(CCCl)cc4CC[C@H]3[C@@H]1C[C@H](Cc1cccc(C(N)=O)c1)[C@@H]2O` [Compound 9, 3-{[(16β,17β)-3-(2-chloroethyl)-17-hydroxyestra-1(10),2,4-trien-16-yl]methyl}benzamide] the inhibition at 0.1 µM ([4]; read-out: Inhibition (0.1 μM)) was 55%.

`C[C@]12CC[C@@H]3c4ccc(CCI)cc4CC[C@H]3[C@@H]1C[C@H](Cc1cccc(C(N)=O)c1)[C@@H]2O` [Compound 10, 3-{[(16β,17β)-17-hydroxy-3-(2-iodoethyl)estra-1(10),2,4-trien-16-yl]methyl}benzamide] was tested, and the inhibition at 0.1 µM ([4]; read-out: Inhibition (0.1 μM)) was 7%.

In the case of `C[C@]12CC[C@](O)(CN3CCN(Cc4cccc(C(F)(F)F)c4)CC3)C[C@@H]1CC[C@@H]1[C@@H]2CC[C@]2(C)C(=O)CC[C@@H]12` [Compound 10a, (3α,5α)-3-hydroxy-3-({4-[3-(trifluoromethyl)benzyl]piperazin-1-yl}methyl)androstan-17-one], the inhibition at 0.01 µM [1, 5] is reported as 51%, the inhibition at 0.1 µM [1, 6] is reported as 88% and the inhibition at 0.1 µM [2, 7] is reported as 52%. The inhibition at 1 µM [3, 8] was 34%.

Work on `C[C@]12CC[C@](O)(CN3CCN(Cc4ccccc4C(F)(F)F)CC3)C[C@@H]1CC[C@@H]1[C@@H]2CC[C@]2(C)C(=O)CC[C@@H]12` [Compound 10b, (3α,5α)-3-hydroxy-3-({4-[2-(trifluoromethyl)benzyl]piperazin-1-yl}methyl)androstan-17-one] yielded an inhibition at 0.01 µM [1, 5] of 18%, an inhibition at 0.1 µM [1, 6] of 86% and an inhibition at 0.1 µM [2, 7] of 20%. The inhibition at 1 µM [3, 8] was 50%.

For `C[C@]12CC[C@](O)(CN3CCN(Cc4cccc(SC(F)(F)F)c4)CC3)C[C@@H]1CC[C@@H]1[C@@H]2CC[C@]2(C)C(=O)CC[C@@H]12` [Compound 10d, (3α,5α)-3-hydroxy-3-[(4-{3-[(trifluoromethyl)sulfanyl]benzyl}piperazin-1-yl)methyl]androstan-17-one], the inhibition at 0.01 µM [1, 5] was 3%, the inhibition at 0.1 µM [1, 6] was 91% and the “Intact cells (%), tested at 1 μM” value ([2]; 1 μM) was “N/A (62)^b %”. It also gave an inhibition at 1 µM [3, 8] of 29%.

For `C[C@]12CC[C@](O)(CN3CCN(Cc4cccc(Cl)c4)CC3)C[C@@H]1CC[C@@H]1[C@@H]2CC[C@]2(C)C(=O)CC[C@@H]12` [Compound 10e, (3α,5α)-3-{[4-(3-chlorobenzyl)piperazin-1-yl]methyl}-3-hydroxyandrostan-17-one], the “Homo (%) (0.01 μM)” value ([1]; Table 3, 0.01 μM) was 26%, the “Homo (%) (0.1 μM)” value ([1]; Table 3, 0.1 μM) was 85% and the “Intact cells (%), tested at 1 μM” value ([2]; 1 μM) was “N/A (75)^b %”. The “Inhibition (%) at 1 μM” value ([3]; [14C]-E2 (1 μM) into [14C]-E1, intact HEK-293 cells, 1 μM) was 21%.

`C[C@]12CC[C@@H]3c4ccc(OCCBr)cc4CC[C@H]3[C@@H]1C[C@H](Cc1cccc(C(N)=O)c1)[C@@H]2O` [Compound 15, 3-{[(16β,17β)-3-(2-bromoethoxy)-17-hydroxyestra-1(10),2,4-trien-16-yl]methyl}benzamide] was tested, and the inhibition at 0.1 µM [4, 9] was 39% and the inhibition at 1 µM [4, 10] was 81%.

With `C[C@]12CC[C@@H]3c4ccc(CCc5ccccc5)cc4CC[C@H]3[C@@H]1C[C@H](Cc1cccc(C(N)=O)c1)[C@@H]2O` [Compound 19, 3-{[(16β,17β)-17-hydroxy-3-(2-phenylethyl)estra-1(10),2,4-trien-16-yl]methyl}benzamide] the inhibition at 0.1 µM ([4]; read-out: Inhibition (0.1 μM)) was 13%.

In the case of `C[C@]12CC[C@@H]3c4ccc(CCCO)cc4CC[C@H]3[C@@H]1C[C@H](Cc1cccc(C(N)=O)c1)[C@@H]2O` [Compound 24, 3-{[(16β,17β)-17-hydroxy-3-(3-hydroxypropyl)estra-1(10),2,4-trien-16-yl]methyl}benzamide], the inhibition at 0.1 µM [4, 9] is reported as 16%.

`C[C@]12CC[C@@H]3c4ccc(CCCBr)cc4CC[C@H]3[C@@H]1C[C@H](Cc1cccc(C(N)=O)c1)[C@@H]2O` [Compound 25, 3-{[(16β,17β)-3-(3-bromopropyl)-17-hydroxyestra-1(10),2,4-trien-16-yl]methyl}benzamide] gave an inhibition at 0.1 µM ([4]; read-out: Inhibition (0.1 μM)) of 37% and an inhibition at 1 µM [4] of 82%.

For `CNC(=O)Cc1ccc2c(c1)CC[C@@H]1[C@@H]2CC[C@]2(C)[C@@H](O)[C@@H](Cc3cccc(C(N)=O)c3)C[C@@H]12` [Compound 32, 3-{[(16β,17β)-17-hydroxy-3-[2-(methylamino)-2-oxoethyl]estra-1(10),2,4-trien-16-yl]methyl}benzamide], the inhibition at 0.1 µM ([4]; read-out: Inhibition (0.1 μM)) was 5% and the inhibition at 1 µM [4] was 15%.

With `CN(C)Cc1ccc2c(c1)CC[C@@H]1[C@@H]2CC[C@]2(C)[C@@H](O)[C@@H](Cc3cccc(C(N)=O)c3)C[C@@H]12` [Compound 40a, 3-{[(16β,17β)-3-[(dimethylamino)methyl]-17-hydroxyestra-1,3,5(10)-trien-16-yl]methyl}benzamide] the inhibition at 0.1 µM [4, 9] was 12% and the inhibition at 1 µM [4, 10] was 49%.

In the case of `C[C@]12CC[C@@H]3c4ccc(CN5CCCC5)cc4CC[C@H]3[C@@H]1C[C@H](Cc1cccc(C(N)=O)c1)[C@@H]2O` [Compound 40c, 3-{[(16β,17β)-17-hydroxy-3-(pyrrolidin-1-ylmethyl)estra-1,3,5(10)-trien-16-yl]methyl}benzamide], the inhibition at 0.1 µM [4, 9] is reported as 1% and the inhibition at 1 µM [4, 10] is reported as 28%.

With `C[C@]12CC[C@@H]3c4ccc(C(=O)N5CCCC5)cc4CC[C@H]3[C@@H]1C[C@H](Cc1cccc(C(N)=O)c1)[C@@H]2O` [Compound 41c, 3-{[(16β,17β)-17-hydroxy-3-(pyrrolidin-1-ylcarbonyl)estra-1,3,5(10)-trien-16-yl]methyl}benzamide] the inhibition at 0.1 µM ([4]; read-out: Inhibition (0.1 μM)) was 0% and the inhibition at 1 µM [4] was 13%.

`C[C@]12CC[C@@H]3c4ccc(CBr)cc4CC[C@H]3[C@@H]1C[C@H](Cc1cccc(C(N)=O)c1)[C@@H]2O` [III, 3-{[(16β,17β)-3-(bromomethyl)-17-hydroxyestra-1,3,5(10)-trien-16-yl]methyl}benzamide] was tested, and the inhibition at 0.01 µM ([4]; read-out: Inhibition % (0.01 μM)) was 20%, the inhibition at 0.1 µM ([4]; read-out: Inhibition % (0.1 μM)) was 36% and the inhibition at 0.1 µM ([4]; read-out: Inhibition (0.1 μM)) was 19%. For the same molecule, the inhibition at 1 µM [4] was 66%.
